Test results taken from US20190119200A1, “TERTIARY AMIDES AND METHOD OF USE” (AbbVie Inc., priority 2016, published 2019).

Experiments:
LPAR1 = molecular target: T1, LPAR1 (Homo sapiens, UniProt Q92633); test: LPAR1 FLIPR Assay; format: cell-based; conditions: U2OS cells stably expressing LPAR1, LPA (EC80), Calcium 6 FLIPR dye; for Emax: read-out: Maximum Inhibition
T1 construct: host or cells: U2OS
In short: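 Calcium flux read-out (515-575 nm, FLIPR) in LPAR1-expressing U2OS cells after LPA challenge at EC80, given 3 min after compound addition; cells carried Calcium 6 dye loaded 2 h at 37° C. Eleven-point 3-fold dilutions were fitted with a four-parameter Hill equation for IC50.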

[1] = test system: LPA-induced MCP-1 in NRK-49F cells; test: LPA-induced MCP-1 AlphaLISA assay; format: cell-based; conditions: Rattus norvegicus, final LPA 10 μM, 7 hours; for Emax: read-out: Maximum Inhibition
In short: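 NRK-49F rat fibroblasts, serum-starved overnight, pretreated with compound for 30 min at 37 °C (1% DMSO final), then stimulated with 10 μM LPA final. MCP-1 in the supernatant was measured by mouse/rat CCL2 AlphaLISA. IC50 values came from four-parameter logistic fits of the ratio data.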

[2] = test system: UUO mice (kidney fibrosis); test: Mouse unilateral ureteral obstruction (UUO) kidney fibrosis model; format: in vivo; conditions: male CD-1 mice, 30 mg/kg po twice daily D-1 to D6, compared to vehicle treated UUO group
Method: All animal handling and experimental protocols were approved by AbbVie's Institutional Animal Care and Use Committee (IACUC) and were conducted in accordance with the ethical principles for pain-related animal research of the American Pain Society. Male CD-1 mice (28-30 g, Charles River) were group housed 10 per cage, housed in a temperature controlled room with a 12/12-hour day/night cycle, with food (2018 Tekland Global 18% protein rodent diet, Harlan®) and water available ad libitum. Mice underwent either complete unilateral ureter obstruction (UUO) or sham surgery to the left kidney. Briefly, animals were anesthetized with isoflurane, and the left ureter was visualized via a flank incision. Using 6-0 silk sutures, the ureter was tied off at two points near the renal pelvis and then completely cut between ligations (ligation step omitted for sham operated animals). The abdominal muscle was sutured and the skin closed using standard wound clips. Test compound or vehicle was delivered twice daily (30 mg/kg, po) via oral gavage, starting on the day before surgery (D-1) and continuing through day 6 after surgery (D6), at which time animals were sacrificed and kidney tissues collected. […] Statistical significance was determined by using a one-way analysis of variance (ANOVA) followed by a Bonferroni post-hoc test and was conducted using GraphPad prism.

T1 sequence (Q92633 whole entry): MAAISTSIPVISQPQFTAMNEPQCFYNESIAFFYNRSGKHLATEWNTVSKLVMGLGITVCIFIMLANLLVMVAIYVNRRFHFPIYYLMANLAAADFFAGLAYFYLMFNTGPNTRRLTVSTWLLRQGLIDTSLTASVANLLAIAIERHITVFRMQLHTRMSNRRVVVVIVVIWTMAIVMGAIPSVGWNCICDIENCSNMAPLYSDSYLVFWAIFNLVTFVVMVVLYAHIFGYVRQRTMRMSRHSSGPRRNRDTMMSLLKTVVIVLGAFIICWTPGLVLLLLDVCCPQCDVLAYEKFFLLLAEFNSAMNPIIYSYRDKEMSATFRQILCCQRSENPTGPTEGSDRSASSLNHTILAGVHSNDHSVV

COc1cc(OC)cc(C(=O)N(CCCCC(=O)O)CCCc2ccccc2)c1 [Example 7, 5-[(3,5-dimethoxybenzoyl)(3-phenylpropyl)amino]pentanoic Acid]
IC50 (LPAR1): 32 nM | Emax (LPAR1): 82% | IC50 [1]: 2630 nM | Emax [1]: 71% | reduction in Col1a1 expression [2]: −46% | reduction in tubulointerstitial fibrosis as measured by PSR [2]: −53%

COc1cc(C(=O)N(CCCc2ccccc2)CCCC(C)(O)C(=O)O)cc(OC)c1C (stereo not shown) [Example 155, 5-[(3,5-dimethoxy-4-methylbenzoyl)(3-phenylpropyl)amino]-2-hydroxy-2-methylpentanoic Acid]
IC50 (LPAR1): 27 nM | Emax (LPAR1): 90% | IC50 [1]: 763 nM | Emax [1]: 81%

COc1cc(C(=O)N(CCCc2ccccc2)CCOCC(=O)NS(C)(=O)=O)cc(OC)c1C [Example 157, N-(2-{2-[(methanesulfonyl)amino]-2-oxoethoxy}ethyl)-3,5-dimethoxy-4-methyl-N-(3-phenylpropyl)benzamide]
IC50 (LPAR1): 16 nM | Emax (LPAR1): 92% | IC50 [1]: 460 nM | Emax [1]: 77%

COc1cc(C(=O)N(CCCCC(=O)O)CCCc2ccco2)cc(OC)c1C [Example 173, 5-{(3,5-dimethoxy-4-methylbenzoyl)[3-(furan-2-yl)propyl]amino}pentanoic Acid]
IC50 (LPAR1): 29 nM | Emax (LPAR1): 74% | IC50 [1]: 4540 nM | Emax [1]: 64%

COc1cc(C(=O)N(CCCCC(=O)O)CCCc2ccc(Cl)o2)cc(OC)c1C [Example 185, 5-{[3-(5-chlorofuran-2-yl)propyl](3,5-dimethoxy-4-methylbenzoyl)amino}pentanoic Acid]
IC50 (LPAR1): 13 nM | Emax (LPAR1): 91% | IC50 [1]: 536 nM | Emax [1]: 84%
